# Assays:
# [1] = system: skin of patients (keratoses, sun damage, rosacea, melasma, wrinkles); experiment: Treatment of patients with PDT/IPL/RF after ALA application; assay type: in vivo, human
# Method: Four patients were treated with a combination of PDT, IPL, and RF. ALA was applied to the patients at time 0.
# Patient 1 received one PDT/RF/IPL peel treatment at full energy (26 J) 4 hours after application of ALA.
# Patients 2, 3, and 4 received four sessions of PDT/RF/IPL photofacial treatments at full energy (26 J) 1 hour after application of ALA.
# skin of the subject = experiment: Determination of effective treatment time for PDT/IPL/RF rejuvenation therapy after ALA application; assay type: in vivo, human
# From the text: ALA, was applied to the skin of the subject. The light used for PDT was IPL comprising a variety of wavelengths, with an intensity of 26 J. PDT/IPL/RF was applied at various time points following ALA application. […] The increase in efficacy leveled off at hours 5 and 6.
# A 4-hour treatment with ALA was required for significant efficacy of PDT/IPL/RF. A time course of this length may be accompanied by increases in erythema and other side effects. In order to minimize side effects, it was determined that a 1-hour treatment was preferred. The 1-hour treatment requires repeated administrations for maximum efficacy, but prevents skin breakdown. With its potential for increased side effects, the 4-hour treatment should be reserved for severe premalignant cases only.
# [2] = Patient 1, one PDT/RF/IPL peel treatment at 26 J, 4 hours after ALA
smiles,measurement,setting,value
"NCC(=O)CCC(=O)O [ALA, 5-aminolevulinic acid]",effect on lentigines,"[1]; 4-hour treatment, Patient 1",selective destruction of lentigines
same,effect on atypia and keratoses,[1]; [2],significant darkening and slough of atypia and keratoses
same,effect on wrinkles,[1]; [2],diminution of wrinkles
same,skin rejuvenation,[1]; [2],generalized skin rejuvenation
same,"effect on sun damage, rosacea, and melasma","[1]; Patients 2, 3 and 4, four sessions PDT/RF/IPL photofacial at 26 J, 1 hour after ALA","decrease in sun damage, rosacea, and melasma"
same,efficacy of PDT/IPL/RF versus standard IPL/RF alone,"skin of the subject; PDT/IPL/RF applied 15 minutes after ALA application, IPL 26 J, human test subject",no more efficacious than standard IPL/RF alone
same,efficacy of PDT/IPL/RF over RF alone,"skin of the subject; PDT/IPL/RF applied 30 minutes after ALA application, IPL 26 J",minimal increase in efficacy
same,efficacy of PDT/IPL/RF over RF alone,"skin of the subject; PDT/IPL/RF applied 45 minutes after ALA application, IPL 26 J",minimal increase in efficacy
same,efficacy of PDT/IPL/RF,"skin of the subject; PDT/IPL/RF applied 1 hour after ALA application, IPL 26 J",noticeable increase in efficacy
same,efficacy of PDT/IPL/RF,"skin of the subject; PDT/IPL/RF applied 2 hours after ALA application, IPL 26 J",noticeable increase in efficacy
same,efficacy of PDT/IPL/RF,"skin of the subject; PDT/IPL/RF applied 4 hours after ALA application, IPL 26 J",largest increase of any point in time
same,efficacy of PDT/IPL/RF,"skin of the subject; PDT/IPL/RF applied 5 hours after ALA application, IPL 26 J",leveled off
same,efficacy of PDT/IPL/RF,"skin of the subject; PDT/IPL/RF applied 6 hours after ALA application, IPL 26 J",leveled off
same,ALA treatment time required for significant efficacy of PDT/IPL/RF,skin of the subject; human test subject,4 h

# — US20050209193A1, “Method for enhanced photodynamic therapy” (priority 2003, published 2005)
